According to ChEMBL document CHEMBL1201862, “PubChem BioAssay data set” (2004):
Activity calls are given as the source filed them.

Columns and labels:
[1] = HPDE-C7 pancreatic duct cell viability loss – fluorescence, HTS (AID 430); assay type: functional, cell-based; details: Homo sapiens
[2] = potency of ADAM10 substrate cleavage blockers – biochemical, QFRET, dose response (AID 743254);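 note: ADAM10 enzyme with the DM2 quenched FRET peptide as substrate; EDANS fluorescence gain as the protease cuts the substrate; inhibitor potency against ADAM10 proteolytic activity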
[3] = viability loss of HPDE-C7K cells – cell-based, fluorescence, HTS, primary screen (AID 431); assay type: functional; details: Homo sapiens
[4] = target: T1, Low molecular weight phosphotyrosine protein phosphatase (Homo sapiens, UniProt P24666); assay: inhibition of LMPTP-A enzymatic activity – biochemical, OMFP substrate, fluorescence intensity, set 2, dose response (AID 743307); assay type: functional
T1 sequence (P24666 whole entry): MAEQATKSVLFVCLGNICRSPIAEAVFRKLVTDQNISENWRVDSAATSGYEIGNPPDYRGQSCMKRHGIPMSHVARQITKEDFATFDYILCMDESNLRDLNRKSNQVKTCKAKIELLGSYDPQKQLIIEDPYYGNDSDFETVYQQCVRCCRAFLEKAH

[5] = target: T1, Low molecular weight phosphotyrosine protein phosphatase; assay: inhibition of human LMPTP enzyme activity – biochemical, absorbance, pNPP substrate, LMPTP-A isoform, set 2, orthogonal assay, dose response (AID 743308); assay type: functional
Kallikrein-7 = Kallikrein-7 (Homo sapiens, UniProt P49862); assay: Fluorescence Intensity-based biochemical primary high throughput dose response assay to identify activators of kallikrein-7 (K7) zymogen.
Kallikrein-7, sequence (P49862 whole entry): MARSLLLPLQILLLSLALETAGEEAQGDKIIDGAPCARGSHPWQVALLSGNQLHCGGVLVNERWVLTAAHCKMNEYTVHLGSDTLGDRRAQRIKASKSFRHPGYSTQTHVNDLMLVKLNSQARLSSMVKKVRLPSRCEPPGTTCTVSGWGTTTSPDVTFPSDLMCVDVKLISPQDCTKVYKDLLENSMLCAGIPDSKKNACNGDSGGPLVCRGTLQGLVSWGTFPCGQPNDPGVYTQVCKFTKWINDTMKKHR

cells [6] = assay: cells
[7] = target: T2, Oxysterols receptor LXR-beta (Homo sapiens, UniProt P55055); assay type: functional, cell-based;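 note: Cell-based luminescence dose-response assay of agonist activity at LXR, run as a confirmatory counterscreen to a daf-12 agonist screen; HEK293 cells with Gal4-LXR fusion and GAL4-driven luciferase reporter; agonist potency from rising luciferase signal of a Gal4-LXR reporter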
T2 sequence (P55055 whole entry): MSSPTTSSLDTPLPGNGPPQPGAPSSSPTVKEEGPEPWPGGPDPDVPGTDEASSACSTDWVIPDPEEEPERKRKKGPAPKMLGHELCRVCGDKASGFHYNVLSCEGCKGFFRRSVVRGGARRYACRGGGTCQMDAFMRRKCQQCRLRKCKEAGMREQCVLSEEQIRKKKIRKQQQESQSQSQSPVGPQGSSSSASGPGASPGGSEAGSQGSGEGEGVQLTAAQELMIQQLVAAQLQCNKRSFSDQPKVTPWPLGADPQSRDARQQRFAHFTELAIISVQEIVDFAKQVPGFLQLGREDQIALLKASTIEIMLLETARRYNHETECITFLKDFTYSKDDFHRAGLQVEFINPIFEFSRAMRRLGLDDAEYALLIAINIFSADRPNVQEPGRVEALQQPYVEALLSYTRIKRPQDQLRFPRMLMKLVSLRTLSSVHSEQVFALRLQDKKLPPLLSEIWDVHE

[8] = general mammalian cell viability loss – activator set, cherry-pick, cytotoxicity control for miR-122 modulator project, dose response (AID 720690); assay type: functional, cell-based;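 note: HEK293T human cells scored for general mammalian cytotoxicity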
[9] = general mammalian cell viability loss – inhibitor set, cherry-pick, set 2, cytotoxicity control for miR-122 modulator project, dose response (AID 720697); assay type: functional, cell-based
[10] = target: COUP transcription factor 2 (Homo sapiens, UniProt P24468); assay: Luminescence-based cell-based high throughput dose response assay to identify inhibitors of COUP-TFII (NR2F2).; assay type: functional;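 note: HEK293 cells transiently cotransfected with COUP-TFII expression vector and reporter; luciferase reporter luminescence driven by COUP-TFII from the pX2-168 reporter plasmid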
[11] = target: Protein-tyrosine kinase 2-beta (Homo sapiens, UniProt Q14289);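 note: potency of inhibitors of PYK2 kinase phosphorylation of poly-GT substrate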
Nonstructural protein 1 = Nonstructural protein 1 (Influenza A virus, UniProt Q194T2); assay type: functional, Influenza A virus (A/California/07/2009(H1N1))
Nonstructural protein 1, sequence (Q194T2 whole entry): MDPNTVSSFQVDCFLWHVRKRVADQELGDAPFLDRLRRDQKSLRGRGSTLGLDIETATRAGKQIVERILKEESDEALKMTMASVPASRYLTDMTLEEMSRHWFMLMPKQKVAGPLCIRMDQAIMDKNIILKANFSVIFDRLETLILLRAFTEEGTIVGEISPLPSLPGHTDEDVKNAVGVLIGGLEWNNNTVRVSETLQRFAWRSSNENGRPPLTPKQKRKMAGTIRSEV

[12] = target: Metabotropic glutamate receptor 3 (Rattus norvegicus, UniProt P31422); assay: inhibition of rat mGlu3 glutamate signaling – HEK/GIRK cells, thallium flux, dose response (AID 651839); assay type: functional
Metabotropic glutamate receptor 3, sequence (P31422 whole entry): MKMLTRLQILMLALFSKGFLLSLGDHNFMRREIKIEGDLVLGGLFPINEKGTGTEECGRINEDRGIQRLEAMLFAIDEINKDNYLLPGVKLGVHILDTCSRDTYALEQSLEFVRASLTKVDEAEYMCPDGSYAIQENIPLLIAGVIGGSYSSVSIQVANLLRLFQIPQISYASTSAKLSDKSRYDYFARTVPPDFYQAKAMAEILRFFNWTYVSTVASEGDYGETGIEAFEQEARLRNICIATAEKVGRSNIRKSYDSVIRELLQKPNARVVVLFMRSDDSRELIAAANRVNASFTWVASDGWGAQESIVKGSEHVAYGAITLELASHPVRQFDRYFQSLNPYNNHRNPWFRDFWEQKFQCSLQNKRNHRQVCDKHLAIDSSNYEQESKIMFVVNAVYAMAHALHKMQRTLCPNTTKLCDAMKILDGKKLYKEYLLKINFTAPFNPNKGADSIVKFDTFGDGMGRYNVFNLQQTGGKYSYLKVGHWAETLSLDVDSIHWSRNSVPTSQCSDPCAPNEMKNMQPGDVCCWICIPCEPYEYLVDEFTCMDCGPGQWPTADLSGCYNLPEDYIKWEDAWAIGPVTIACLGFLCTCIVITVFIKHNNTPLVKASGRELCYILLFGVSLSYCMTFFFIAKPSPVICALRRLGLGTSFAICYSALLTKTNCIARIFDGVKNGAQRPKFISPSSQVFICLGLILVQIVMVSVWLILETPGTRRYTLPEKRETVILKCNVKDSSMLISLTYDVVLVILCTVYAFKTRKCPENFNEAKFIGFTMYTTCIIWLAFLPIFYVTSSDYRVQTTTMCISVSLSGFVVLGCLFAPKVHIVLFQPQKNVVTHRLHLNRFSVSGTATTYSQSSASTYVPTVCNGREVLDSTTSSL

Cytochrome P450 3A4 = Cytochrome P450 3A4 (Homo sapiens, UniProt P08684);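 note: CYP3A4 tested as one member of a cytochrome P450 panel screen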
Cytochrome P450 3A4, sequence (P08684 whole entry): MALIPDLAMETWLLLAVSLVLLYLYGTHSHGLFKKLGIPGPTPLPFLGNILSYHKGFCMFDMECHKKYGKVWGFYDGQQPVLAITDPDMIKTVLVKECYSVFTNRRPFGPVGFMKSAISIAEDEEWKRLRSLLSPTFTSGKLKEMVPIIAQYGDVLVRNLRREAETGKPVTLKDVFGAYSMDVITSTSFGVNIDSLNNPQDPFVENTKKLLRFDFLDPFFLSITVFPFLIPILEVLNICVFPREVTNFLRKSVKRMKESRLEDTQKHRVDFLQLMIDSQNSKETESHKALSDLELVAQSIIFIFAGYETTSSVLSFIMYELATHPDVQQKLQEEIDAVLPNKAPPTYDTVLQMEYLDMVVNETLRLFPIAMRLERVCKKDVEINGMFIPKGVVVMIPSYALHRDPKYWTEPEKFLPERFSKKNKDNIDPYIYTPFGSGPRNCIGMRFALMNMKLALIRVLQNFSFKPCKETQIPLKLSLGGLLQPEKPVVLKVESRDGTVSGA

Cytochrome P450 2C19 = Cytochrome P450 2C19 (Homo sapiens, UniProt P33261); assay: Cytochrome panel assay with activity outcomes. Panel member name: p450-cyp2c19 Compounds with AC50 equal or less than 10 uM are considered active; assay type: functional; details: read-out: AC50
Cytochrome P450 2C19, sequence (P33261 whole entry): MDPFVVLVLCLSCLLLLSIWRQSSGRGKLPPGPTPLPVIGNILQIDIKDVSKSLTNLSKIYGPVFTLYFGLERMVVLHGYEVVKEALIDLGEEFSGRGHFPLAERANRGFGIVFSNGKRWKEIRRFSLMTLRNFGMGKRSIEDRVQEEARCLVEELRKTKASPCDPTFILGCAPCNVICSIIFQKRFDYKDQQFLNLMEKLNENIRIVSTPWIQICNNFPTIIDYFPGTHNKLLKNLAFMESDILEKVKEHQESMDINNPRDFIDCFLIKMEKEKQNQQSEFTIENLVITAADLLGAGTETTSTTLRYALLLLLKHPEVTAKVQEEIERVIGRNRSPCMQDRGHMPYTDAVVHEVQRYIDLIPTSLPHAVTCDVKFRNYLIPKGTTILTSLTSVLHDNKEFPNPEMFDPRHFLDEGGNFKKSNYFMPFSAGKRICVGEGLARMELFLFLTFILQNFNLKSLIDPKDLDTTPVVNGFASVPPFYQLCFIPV

Ephrin type-A receptor 4 = Ephrin type-A receptor 4 (Mus musculus, UniProt Q03137); assay: EphA4 ligand-binding antagonists – biochemical, colorimetric, mouse EphA4, primary screen (AID 689); assay type: functional
Ephrin type-A receptor 4, sequence (Q03137 whole entry): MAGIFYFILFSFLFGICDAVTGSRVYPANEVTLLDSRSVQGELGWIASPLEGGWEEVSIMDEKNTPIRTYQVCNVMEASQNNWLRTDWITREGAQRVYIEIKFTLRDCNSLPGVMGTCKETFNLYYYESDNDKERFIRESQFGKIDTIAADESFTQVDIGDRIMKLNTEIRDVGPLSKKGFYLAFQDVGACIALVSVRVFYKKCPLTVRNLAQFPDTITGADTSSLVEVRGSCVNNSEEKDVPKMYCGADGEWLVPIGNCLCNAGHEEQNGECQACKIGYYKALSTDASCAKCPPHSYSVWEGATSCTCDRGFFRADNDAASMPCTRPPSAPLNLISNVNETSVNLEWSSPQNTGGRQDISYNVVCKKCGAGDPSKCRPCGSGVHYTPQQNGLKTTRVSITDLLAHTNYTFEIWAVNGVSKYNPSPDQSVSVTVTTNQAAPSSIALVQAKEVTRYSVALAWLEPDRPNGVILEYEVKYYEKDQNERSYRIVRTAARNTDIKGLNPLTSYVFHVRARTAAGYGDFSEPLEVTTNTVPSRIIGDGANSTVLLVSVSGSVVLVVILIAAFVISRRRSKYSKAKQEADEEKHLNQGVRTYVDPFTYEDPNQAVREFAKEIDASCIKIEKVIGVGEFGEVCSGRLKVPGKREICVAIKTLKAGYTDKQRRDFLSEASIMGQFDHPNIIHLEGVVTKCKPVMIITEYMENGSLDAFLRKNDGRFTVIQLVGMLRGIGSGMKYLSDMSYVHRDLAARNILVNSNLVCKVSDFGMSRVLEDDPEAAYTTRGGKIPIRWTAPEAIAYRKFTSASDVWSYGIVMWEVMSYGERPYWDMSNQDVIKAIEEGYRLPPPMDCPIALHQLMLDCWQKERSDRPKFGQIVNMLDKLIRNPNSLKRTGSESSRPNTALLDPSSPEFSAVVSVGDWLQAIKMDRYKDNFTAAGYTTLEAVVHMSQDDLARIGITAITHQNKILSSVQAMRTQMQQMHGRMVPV

[13] = target: Mitogen-activated protein kinase 10 (Homo sapiens, UniProt P53779); assay: Dose response biochemical screening assay for inhibitors of c-Jun N-Terminal Kinase 3 (JNK3). [Related pubchem assays: 746 ]
Mitogen-activated protein kinase 10, sequence (P53779 whole entry): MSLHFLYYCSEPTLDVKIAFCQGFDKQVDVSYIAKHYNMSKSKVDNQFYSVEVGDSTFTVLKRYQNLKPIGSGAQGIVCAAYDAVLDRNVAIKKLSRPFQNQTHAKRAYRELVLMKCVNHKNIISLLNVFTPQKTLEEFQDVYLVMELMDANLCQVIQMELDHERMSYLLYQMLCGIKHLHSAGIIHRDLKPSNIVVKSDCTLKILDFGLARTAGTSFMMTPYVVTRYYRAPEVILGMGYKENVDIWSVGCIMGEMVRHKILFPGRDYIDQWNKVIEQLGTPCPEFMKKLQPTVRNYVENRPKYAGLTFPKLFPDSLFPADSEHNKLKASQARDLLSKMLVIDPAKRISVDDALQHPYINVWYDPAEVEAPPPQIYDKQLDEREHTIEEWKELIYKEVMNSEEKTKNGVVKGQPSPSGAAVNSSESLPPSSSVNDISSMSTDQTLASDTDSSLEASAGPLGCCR

Albumin = Albumin (Bos taurus, UniProt P02769); assay: Counterscreen for inhibitors of T-cell receptor (TCR)-CD3 interaction: Fluorescence-based biochemical high throughput dose response assay to identify inhibitors of T-cell receptor (TCR)-CD3 interaction using a TAMRA-labeled BSA probe.; assay type: functional
[14] = NIH3T3 cell viability loss – ATP luminescence, mouse fibroblasts, counter-screen, dose response (AID 2010); assay type: functional, cell-based;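 note: cells exposed to compound for about 90 hours before reading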
[15] = Trypanosoma cruzi growth suppression in host cells – NIH3T3 host cells, beta-gal luminescence, confirmation (AID 2044); assay type: functional, cell-based;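 note: intracellular parasites grown in NIH/3T3 mouse fibroblasts as host cells; luminescent beta-galactosidase reporter signal from transgenic T. cruzi replicating inside host cells; inhibitors lower the luminescence signal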
[16] = target: 5-hydroxytryptamine receptor 1A (Homo sapiens, UniProt P08908); assay type: functional
5-hydroxytryptamine receptor 1A, sequence (P08908 whole entry): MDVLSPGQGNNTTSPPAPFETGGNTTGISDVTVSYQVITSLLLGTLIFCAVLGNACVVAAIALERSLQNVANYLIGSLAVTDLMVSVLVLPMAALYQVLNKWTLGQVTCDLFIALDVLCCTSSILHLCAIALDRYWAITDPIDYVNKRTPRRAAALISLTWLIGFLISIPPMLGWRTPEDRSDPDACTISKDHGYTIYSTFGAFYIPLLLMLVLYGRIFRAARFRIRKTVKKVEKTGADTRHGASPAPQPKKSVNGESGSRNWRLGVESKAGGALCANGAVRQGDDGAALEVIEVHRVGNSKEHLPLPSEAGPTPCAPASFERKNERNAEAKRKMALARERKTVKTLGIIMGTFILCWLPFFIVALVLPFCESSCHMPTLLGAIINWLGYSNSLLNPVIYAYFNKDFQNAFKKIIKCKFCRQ

cells [17] = assay: cells; remark: listed apart in the source
[18] = viability inhibitors of stage V gametocytes – luminescence, dose response (AID 1117278); assay type: functional, cell-based;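 note: gametocytes exposed to compound for 24 hours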
[19] = viability loss in human Jurkat cells – cell-based, luminescence, cytotoxicity control for P. falciparum gametocyte viability project, dose response (AID 1117277); assay type: functional;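 note: potency reflects loss of cellular ATP meaning fewer viable cells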
[20] = target: Voltage-dependent T-type calcium channel subunit alpha-1H (Homo sapiens, UniProt O95180); assay type: functional;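 note: channel activity triggered by adding a high calcium stimulation buffer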
[21] = OVCAR8 cell viability loss – plate reader, dry powder samples, PAX8 project, dose response (AID 743197); assay type: functional, cell-based; details: OVCAR-8
[22] = OVCAR-3 cell viability loss – plate reader, dry powder samples, PAX8 inhibitor project, dose response (AID 743044); assay type: functional, cell-based
Paired box protein Pax-8 = Paired box protein Pax-8 (Homo sapiens, UniProt Q06710); assay: PAX8 transcriptional activity inhibition in RMG-I – RMG-I cells, luciferase, cherry-pick, dose response (AID 687027); assay type: functional, cell-based;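 note: luciferase reporter driven by Pax8 target thyroperoxidase promoter measured by SteadyGlo luminescence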
Paired box protein Pax-8, sequence (Q06710 whole entry): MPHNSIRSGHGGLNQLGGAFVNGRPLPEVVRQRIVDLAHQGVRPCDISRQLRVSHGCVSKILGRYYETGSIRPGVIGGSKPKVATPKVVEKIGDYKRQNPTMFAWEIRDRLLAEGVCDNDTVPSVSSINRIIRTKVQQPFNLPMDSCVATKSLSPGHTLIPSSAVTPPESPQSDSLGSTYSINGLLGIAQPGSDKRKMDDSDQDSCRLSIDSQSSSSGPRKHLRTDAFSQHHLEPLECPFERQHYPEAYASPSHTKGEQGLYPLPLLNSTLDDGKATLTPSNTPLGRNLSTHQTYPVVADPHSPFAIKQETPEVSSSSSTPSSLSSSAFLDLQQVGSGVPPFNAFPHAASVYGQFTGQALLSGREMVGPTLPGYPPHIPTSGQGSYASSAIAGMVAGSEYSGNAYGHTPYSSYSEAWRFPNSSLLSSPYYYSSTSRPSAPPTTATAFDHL

cells [23] = assay type: functional, cell-based; details: HEK-CNG
[24] = glucagon-like peptide-1 release potency in STC-1, concentration-response, half-maximal inhibitory concentration in the STC-1 line (AID 1117345); assay type: functional, cell-based
Galanin receptor type 3 = target: T3, Galanin receptor type 3 (Homo sapiens, UniProt O60755); assay: Fluorescence-based cell-based primary high throughput dose response assay to identify antagonists of the Galanin Receptor 3 (GalR3).; assay type: functional
T3 sequence (O60755 whole entry): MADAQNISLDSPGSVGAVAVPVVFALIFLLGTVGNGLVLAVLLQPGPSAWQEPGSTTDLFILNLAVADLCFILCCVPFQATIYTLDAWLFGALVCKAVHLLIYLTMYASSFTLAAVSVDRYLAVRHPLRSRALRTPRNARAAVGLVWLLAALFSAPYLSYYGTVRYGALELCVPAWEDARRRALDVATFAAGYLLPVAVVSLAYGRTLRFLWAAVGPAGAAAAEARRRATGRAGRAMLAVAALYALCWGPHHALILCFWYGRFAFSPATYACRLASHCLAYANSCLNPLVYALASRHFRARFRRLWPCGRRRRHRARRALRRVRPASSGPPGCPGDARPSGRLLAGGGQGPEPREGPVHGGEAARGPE

[25] = Potency on glucagon-like peptide 1 release, dose-response in NCI-H716 cell line, half maximal inhibitory concentration (AID 1117344); assay type: functional, cell-based
[26] = target: T4, RNA-binding protein pos-1 (Caenorhabditis elegans, UniProt G5EF15); assay: disruptors of C. elegans POS-1 RNA interaction – biochemical, fluorescence polarization, dose response (AID 1964);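 note: purified POS-1 fused to maltose binding protein made in E. coli; potency of compounds blocking POS-1 binding to fluorescent RNA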
T4 sequence (G5EF15 whole entry): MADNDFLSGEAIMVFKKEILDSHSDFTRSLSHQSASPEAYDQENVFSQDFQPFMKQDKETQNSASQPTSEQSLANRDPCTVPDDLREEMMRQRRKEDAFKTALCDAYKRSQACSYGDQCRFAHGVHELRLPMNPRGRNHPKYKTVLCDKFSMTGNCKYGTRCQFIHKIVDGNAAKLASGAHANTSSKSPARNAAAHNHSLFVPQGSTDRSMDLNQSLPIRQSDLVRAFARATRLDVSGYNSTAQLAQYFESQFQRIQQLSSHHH

[27] = target: T5, Zinc finger protein mex-5 (Caenorhabditis elegans, UniProt Q9XUB2); assay: potency of MEX-5 RNA-binding blockers – biochemical, C. elegans, fluorescence polarization, dose response (AID 1960)
T5 sequence (Q9XUB2 whole entry): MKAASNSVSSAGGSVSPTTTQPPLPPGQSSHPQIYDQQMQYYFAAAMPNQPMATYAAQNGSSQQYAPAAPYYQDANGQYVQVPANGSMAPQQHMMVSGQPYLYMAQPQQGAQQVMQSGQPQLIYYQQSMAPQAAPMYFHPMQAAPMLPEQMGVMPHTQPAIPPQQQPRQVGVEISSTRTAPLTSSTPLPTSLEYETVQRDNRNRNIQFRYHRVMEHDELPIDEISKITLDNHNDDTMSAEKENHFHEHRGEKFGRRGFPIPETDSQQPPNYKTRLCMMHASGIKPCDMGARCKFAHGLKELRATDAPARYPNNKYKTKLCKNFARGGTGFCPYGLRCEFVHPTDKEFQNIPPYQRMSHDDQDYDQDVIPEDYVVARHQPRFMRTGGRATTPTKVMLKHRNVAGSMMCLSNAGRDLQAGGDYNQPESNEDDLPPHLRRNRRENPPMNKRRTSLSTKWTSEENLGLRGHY

COc1ccc(-c2[nH]nc(C(F)(F)F)c2-c2cc3ccccc3o2)c(O)c1
EC50 [1]: 3.24 µM (active)
IC50 [2]: > 69.5 µM (inactive)
EC50 [3]: 3.68 µM (active)

c1ccc(-c2nc(NCCN3CCCCC3)c3ccccc3n2)cc1
IC50 [4]: 64.3 µM (inactive)
IC50 [5]: > 80 µM (inactive)

Cc1cccc2c(C(=O)O)c3cccc(C)c3nc12
EC50 (Kallikrein-7): > 69.5 µM (inactive)

c1ccc(-c2nc(NCCN3CCOCC3)c3ccccc3n2)cc1
IC50 [4]: 25.4 µM (inactive)
IC50 [5]: 53.5 µM (inactive)

Cc1cc(C(=O)Cn2nnc3ccccc3c2=O)c(C)n1Cc1cccs1
EC50 (cells [6]): > 67.6 µM (inactive)
EC50 [7]: > 67.6 µM (inactive)

CC(C)N(C[C@@H]1N[C@@H](CO)[C@@H]1c1ccccc1)S(=O)(=O)c1ccccc1
AC50 [8]: 32.2 µM (active)
AC50 [9]: 0.473 µM (active)

CCCc1nc2c(C)cc(Br)cn2c1Cc1ccc(C)cc1
EC50 (cells [6]): > 67.5 µM (inactive)
EC50 [7]: > 67.5 µM (inactive)

CCOC(=O)N1CCC(Nc2ncnc3c2cnn3-c2ccc(C)cc2C)CC1
IC50 [10]: 13.6 µM (inactive)

CN(C)c1cc2c(c(N(C)C)c1)C(=O)c1ccccc1C2=O
IC50 [11]: 2.13 µM (active)
IC50 (Nonstructural protein 1): 14.1 µM (active)

COc1ncc(-c2ccc3cc(C(=O)N4CCCC(CO)C4)ccc3c2)cn1 (configuration not stated)
IC50 [12]: 2.17 µM

CC1Cc2ccccc2N1Cc1nc(O)c2ccc(C(F)(F)F)cc2n1 (configuration not stated)
AC50 (Cytochrome P450 3A4): 25.1 µM (inconclusive)
AC50 (Cytochrome P450 2C19): 0.0282 µM (inconclusive)
IC50 (Ephrin type-A receptor 4): > 100 µM (not active)

Fc1cc2nccnc2cc1N1CCSCC1
IC50 [13]: 50.2 µM (not active)

COc1ccc(NS(=O)(=O)c2cc(NC(=O)/C=C/c3cc(OC)c(OC)c(OC)c3)ccc2N2CCCCC2)cc1
IC50 (Albumin): > 94.1 µM (inactive)
EC50 [14]: > 60 µM (not active)
EC50 [15]: 1.63 µM (active)

CCc1nn(C(C)C(=O)NCCN2CCN(c3cccc(C)c3C)CC2)c(=O)c2cc3occc3n12 (configuration not stated)
EC50 [16]: > 50 µM (not active)

O=C(c1ccc2cc(-c3ccccc3OCc3ccccc3)ccc2c1)N1CCCC(CO)C1 (configuration not stated)
IC50 [12]: 9.35 µM (active)

COc1ccc(/C=C/CN2CCCC(CCC(=O)NCc3ccc(F)c(F)c3)C2)cc1 (configuration not stated)
EC50 (cells [17]): 0.037 µM (active)
EC50 [14]: > 60 µM (not active)
EC50 [15]: < 0.1 µM (active)

O=C(CSc1nc2ccccc2[nH]1)NCc1ccco1
IC50 [18]: > 109 µM (inactive)
IC50 [19]: > 83.3 µM (inactive)

Cc1cccc2cc(/C=C3\N=C(c4ccccc4)OC3=O)c(N3CCOCC3)nc12
EC50 [20]: 0.685 µM (active)
IC50 (Ephrin type-A receptor 4): 1.35 µM (active)

C[C@@H]1CN([C@H](C)CO)C(=O)c2cc(NC(=O)Cc3ccccc3)ccc2O[C@@H](C)CCCCO[C@H]1CN(C)Cc1ccc(C(F)(F)F)cc1
AC50 [21]: 63.1 µM (active)
AC50 [8]: 13.8 µM (active)
AC50 [22]: 3.83 µM (active)
AC50 (Paired box protein Pax-8): 3.98 µM (active)
AC50 [9]: 0.795 µM (active)

CCOC(=O)CC1CCCCN1Cc1cn(C)nc1-c1ccc2c(c1)OCCO2 (configuration not stated)
IC50 [18]: > 109 µM (inactive)
IC50 [19]: > 83.3 µM (inactive)

O=C(NCCCN1CCOCC1)c1cc2nc(-c3ccco3)cc(C(F)(F)F)n2n1
EC50 (Kallikrein-7): > 69.5 µM (inactive)

CC(=O)OC(C)C[N+](C)(C)C (configuration not stated) [METHACHOLINE CHLORIDE]
EC50 (cells [23]): > 30 µM (inactive)
IC50 [24]: > 40 µM (inactive)
IC50 (Galanin receptor type 3): 7.36 µM (active)
IC50 [25]: > 40 µM (inactive)

Cn1cc(/C(Cc2ccccc2)=N\O)c2ccccc21
EC50 [16]: > 50 µM (not active)

COC1(OC)N=C(N)C2(C#N)C(c3ccc4c(c3)OCO4)C12C#N (configuration not stated)
IC50 [13]: > 93.1 µM (not active)
EC50 [26]: 59.9 µM (active)
EC50 [27]: 64.3 µM (active)

CCOC(=O)[C@@H](N)CS
IC50 [24]: 14.3 µM (inactive)
IC50 [25]: > 40 µM (inactive)
